Results on one compound are retold here after patent US9443060B2, “Method and system to provide personalized pharmaceutical compositions and dosages” (Volant Holdings GMBH, priority 2009, dated 2016).

SMILES strings stand for the structures. Read-outs that look alike come from different tables or passages of the source.

Experiment [1] concerns hepatic glucose uptake (HGU). Nature of the experiment: Glucose supply and insulin demand model: effect on hepatic glucose uptake. Format: in vivo, human. The protocol: (§1) Therapeutic targets of the glucose supply (CE, 1+2; HGU, 3; GNG, 4; IR, 5) and insulin demand (PGU, 6; PIE, 7) model are presented in FIG. 1. To identify quantitative differences between antidiabetic agents on CE, HGU, GNG, IR, PGU, and PIE, multidatabase searches (Cochrane Central Register of Controlled Trials and Cochrane Register of Systematic Reviews, Embase, OVID Healthstar, OVID Journals, and PubMed) were conducted cross-referencing title and keywords for all selected antidiabetic therapies and their respective targets.
(§2) Alpha-glucosidase, biguanide, and thiazolidinedione (TZD) studies with long-term, pre-post design at maximal therapeutic doses were identified to simulate chronic administration. To maintain consistency with cardiovascular trials and accommodate known influences of hyperglycemia and hyperinsulinemia on the respective targets,^13-16 studies including patients with HbA1c in the range of 6-8% and body mass index (BMI)≧30 kg/m^2 were preferentially selected. In the event multiple studies were available to identify the effect of an agent on a therapeutic target, the mean percent change was used. Conversely, if there was evidence that an agent would elicit a response on a given target but no mathematical representation of the difference was provided, conservative estimates consistent with the scale of other agents and the degree of glucose regulation were instituted to best represent the expected effect. Individual agents were then characterized for the 24 h percent change from baseline for CE, HGU, GNG, IR, PGU, and PIE. Carbohydrate exposure was determined as the combined effect of caloric intake and intestinal carbohydrate absorption. Hepatic glucose uptake was defined as the reported value obtained immediately following oral glucose loading. Because GNG is known to be enhanced in the fasting state and persistent throughout the prandial phase,^17,18 effect was determined during the fasting state and considered equivalent throughout the prandial phase. For studies evaluating fasting glucose and insulin concentrations, an index of IR was determined by homeostasis model assessment of insulin resistance (HOM-AIR) using the following formula: Insulin (mU/liter)×Glucose (mmol)/22.5.^19 To account for known differences in secretory and uptake dynamics during the fasting and prandial phases, studies identifying the impact of therapies during the fasting state (or simulated hyperinsulinemic euglycemic clamp) and prandial phase (or oral glucose load insulin clamp) were specifically identified for changes in PGU (glucose infusion rate) and PIE (insulin concentrations) according to Equation (1): […]
(§3) For sulfonylurea and insulin-based therapies, insulin concentration time profiles were obtained and superimposed on the baseline 24 h insulin concentration time profile of T2D patients (FIG. 2) to calculate the increase in PIE (trapezoidal rule).^20 Calculated increases in incremental and cumulative insulin exposure were correlated to known insulin dose-response effects on HGU, GNG, and PGU (FIG. 3),^18,21 according to the equation y=mx+b. Twenty-four-hour increases in HGU, PGU, and PIE and decreases in GNG were compared to baseline values and percent change calculated.
(§4) With alpha-glucosidase, biguanide, TZD, secretagogue, and insulin therapies characterized for their respective impacts on CE, HGU, GNG, IR, PIE, and PGU, identification of their effect on the glucose supply (decrease in CE, increase in HGU, decrease in GNG, decrease in IR) and insulin demand (increase in PIE, increase in PGU) dynamic was assessed according to Equation (2), which provides the SD ratio according to the invention: […]

Experiment [2] relates to hepatic gluconeogenesis (GNG). Nature of the experiment: Glucose supply and insulin demand model: effect on hepatic gluconeogenesis. Format: in vivo, human. How it is done: as §1, §2, §3, §4
For experiment [3], the system named is peripheral insulin exposure (PIE). Nature of the experiment: Glucose supply and insulin demand model: effect on peripheral insulin exposure. Format: in vivo, human. The protocol:
as §1, §2, §3, §4
Twenty-four-hour steady state insulin concentration time curves were superimposed on the baseline secretion profile of the standard T2D patient.

The subject of experiment [4] is peripheral glucose uptake (PGU). Nature of the experiment: Glucose supply and insulin demand model: effect on peripheral glucose uptake. It counts as in vivo, human. How it is done: as §1, §2, §3, §4
For the next experiment, the system named is caloric intake. The conditions noted are these: Lee and Morley, T2D, cited from earlier work.
Experiment [5] relates to brush border vesicles isolated from rabbit intestine. Particulars: 5 mM metformin; cited from earlier work.
The subject of experiment [6] is intestinal glucose utilization. Particulars: cited from earlier work.
For experiment [7], the system named is hepatic glucose uptake (HGU). The conditions noted are these: Iozzo; metformin 2000 mg daily, rosiglitazone 8 mg daily; 26 weeks; PET [18F]FDG, insulin clamp; cited from earlier work.
The test system of the next experiment is insulin resistance (IR). Particulars: cited from earlier work.
The mark [8] stands for this setting: Metformin 2000 mg, Glyburide 10 mg, Pioglitazone 45 mg, Insulin Glargine 0.5 U/kg daily, pH encapsulated glucose 3.0 grams/day.

Regarding `CN(C)C(=N)N=C(N)N` [Metformin], the “Score HGU” value in experiment [1] (setting [8]) is 0.40. The HGU uptake in [1] (adjustment factor = increase in hepatic glucose uptake at the therapeutic dose of Table 1, T2D) was found to be 0.40. Further, the “Score HGI” value in experiment [2] (setting [8]) worked out at 0.35. In [2] (adjustment factor = decrease in hepatic gluconeogenesis at the therapeutic dose of Table 1, T2D), this compound displayed a GNG inhibition of 0.35. Besides, the “Score PIE” value in experiment [3] (setting [8]) is on record as −0.10. The PIE in experiment [3] (adjustment factor = increase in peripheral insulin exposure at the therapeutic dose of Table 1, T2D) was −0.10. In addition, in [4] (setting [8]), the “Score PGU” value was 0.14. In [4] (adjustment factor = increase in peripheral glucose uptake at the therapeutic dose of Table 1, T2D), this compound came in with a PGU of 0.14. Besides, the “reduction of total caloric intake during the 30 min period” value in the experiment on caloric intake (metformin 850 mg for 3 days) was 30%; in the experiment with caloric intake (metformin 1700 mg for 3 days), 50%. Moreover, the glucose uptake entry in experiment [5] is on record as “nominal decrease in glucose uptake”. For the same compound, the “increase in glucose utilization in mucosa from different regions of the intestine” value in [6] (Bailey, metformin 250 mg/kg^−1, normal rats, intravenous glucose tolerance test) is given as 30-60%. Further, in [6] (Penicaud, metformin 350 mg/kg^−1/day^−1 for 8 days, obese fa/fa rats), the “increase in glucose utilization in the jejunum” value was 39%. The “increase in HGU, placebo-subtracted value” in experiment [7] is given as “+0.008±0.004 μmol/kg^−1/min^−1”. Besides, the “reduction of calculated IR” value in the experiment with insulin resistance (IR) (T2D patients, maximal therapeutic doses of metformin (Iozzo, Stumvoll, Tiikkainen, Sharma)) is recorded as 38-44%. Also, the “reduction of calculated IR (HOMA-IR)” value in the experiment on insulin resistance (IR) (meta-analysis of randomized controlled trials, people at risk for T2D, metformin) is 22.6%.
